The text below walks through data of patent publication US12358919B2, “Antibacterial compounds” (Universita' degli Studi di Siena, priority 2019, dated 2025).

In one assay the test system is K. pneumoniae ATCC 13833. In words: Chequerboard analysis with polymyxin E1 (average FIC index). The class given is cell-based, Klebsiella pneumoniae. Particulars: compound + polymyxin E1.
In assay [1] the test system is Klebsiella pneumoniae ATCC 13833. In words: microbe, parasite or virus in culture. The class given is cell-based. Particulars: for Potentiation fold: ratio MICcompound/MICcompound+polymyxin E; for MIC in presence of colistin: with 0.25xMIC polymyxin E1 (0.12 mg/L); for MIC: Klebsiella pneumoniae, ATCC13833. On the procedure:
(§1) Growth inhibition or killing of bacteria was investigated using conventional methods widely described in the scientific literature. Parameters such as the Minimum Inhibitory Concentration (MIC) were determined as described in Clinical Laboratory Standard Institute (CLSI) document M07 “Methods for Dilution Antimicrobial Susceptibility Tests for Bacteria That Grow Aerobically, 11th Edition” (2018). Synergistic activity of the compounds described in the present specification were determined by measuring the variation of the MIC's compound in the absence and presence of a sub-inhibitory concentration of a suitable antibacterial agent, such as polymyxin E1. Furthermore, the Fractional Inhibitory Concentrations (FICs) were measured using a chequerboard analysis to determine the average FIC index (FICI), whose value is known to characterize the interaction between two compounds and/or drugs (≤0.5, synergistic interaction; >0.5 and <2, no interaction, additive effect; ≥2, antagonistic interaction). Furthermore, the selectivity of the compounds was investigated by measuring their cytotoxic effect on mammalian cell lines (e.g. HeLa cells).
(§2) Several methods were used to investigate the synergistic activity of the compounds, including (a) the determination of the MIC in the presence of a sub-inhibitory concentration of a suitable antibacterial agent, (b) the determination of the average FICI using a chequerboard analysis and (c) the time-kill curve analysis of a suitable agent (at a sub-inhibitory concentration) in the absence and presence of the pyrazolo[4,3-b]pyridin-6-carboxamide compound at a fixed concentration of 2 or 8 mg/L.
(§3) The MIC of the compound was determined alone and in the presence of a fixed and sub-inhibitory concentration of a suitable antibacterial agent of the polymyxin class, such as polymyxin E1 (colistin). The potentiation fold was computed as the ratio MICcompound/MICcompound+polymyxin E. Tested organisms included Escherichia coli CCUG^TKlebsiella pneumoniae ATCC 13833 and Acinetobacter baumannii ATCC 17978, which show a colistin MIC of 0.5, 0.5 and 1 mg/L, respectively.

A further assay deals with Escherichia coli CCUG^T. In words: microbe, parasite or virus in culture. In kind it is cell-based. Particulars: for Potentiation fold: ratio MICcompound/MICcompound+polymyxin E; for MIC in presence of colistin: with 0.25xMIC polymyxin E1 (0.12 mg/L); for MIC: Escherichia coli. The method, then:
as §1, §2, §3

For assay [2], the system named is Acinetobacter baumannii ATCC 17978. The assay can be described thus: microbe, parasite or virus in culture. The class given is cell-based. Particulars: for Potentiation fold: ratio MICcompound/MICcompound+polymyxin E; for MIC in presence of colistin: with 0.25xMIC polymyxin E1 (0.25 mg/L); for MIC: Acinetobacter baumannii, ATCC17978. The method, then: as §1, §2, §3

In assay [3] the test system is Enterococcus faecalis ATCC 29212. The assay can be described thus: MIC, broth microdilution (direct antibacterial activity). In kind it is cell-based. Particulars: ATCC29212, E. faecalis ATCC 29212, compound alone, 18-24 h, read-out: MIC. On the procedure:
as §1
(§4) The MIC values were determined using the broth microdilution method as described in document M07 using Mueller-Hinton broth as culture medium and an initial bacterial inoculum size of 5×10^5 CFU/mL, with a final volume of 100 μL per well in a 96-well microplate. Bacterial strains were Bacillus subtilis ATCC 6633, Enterococcus faecalis ATCC 29212, Streptococcus pyogenes ATCC 12344 and Staphylococcus aureus ATCC 25923. The tested compound concentration ranged from 512 to 0.25 mg/L. Plates were incubated for 18-24 hours at 35±2° C. prior to results analysis.

Assay [4] concerns Streptococcus pyogenes ATCC 12344. The assay is described as above. The note with it: ATCC12344, S. pyogenes ATCC 12344, compound alone, 18-24 h, read-out: MIC. In kind it is cell-based. The method, then: as §1, §4
Assay [5] relates to Bacillus subtilis ATCC 6633. The description is as above. The class given is cell-based. Particulars: ATCC6633, B. subtilis ATCC 6633, compound alone, 18-24 h, read-out: MIC. On the procedure:
as §1, §4

The test system of assay [6] is Staphylococcus aureus ATCC 25923. Described as above. The class given is cell-based. The note with it: ATCC25923, S. aureus ATCC 25923, compound alone, 18-24 h, read-out: MIC. The method, then:
as §1, §4

[7] abbreviates: K. pneumoniae ATCC 13833, compound alone, read-out: MIC.
[8] abbreviates: E. coli CCUG^T, compound alone, read-out: MIC.
Where [9] appears, read: A. baumannii ATCC 17978, compound alone, read-out: MIC.

Molecules are shown by their SMILES. Read-outs that look alike come from different tables or passages of the source. A value given as a limit tells only on which side of the number the result lay.

For `CCCCCn1c(=O)c(C(=O)NC23CC4CC(CC(C4)C2)C3)c(O)c2nn(CCO)cc21` [In, N-(Adamantan-1-yl)-4,5-dihydro-7-hydroxy-2-(2-hydroxyethyl)-5-oxo-4-(1-pentyl)-2H-pyrazolo[4,3-b]pyridin-6-carboxamide], in the assay on K. pneumoniae ATCC 13833, the “Average FIC index” value is reported as 0.32. Besides, the Potentiation fold in assay [1] (K. pneumoniae ATCC 13833) is on record as at least 32; in the assay on Escherichia coli CCUG^T (E. coli CCUG^T), at least 8; in assay [2] (A. baumannii ATCC 17978) it was at least 16. In addition, the “MIC in presence of colistin” value in assay [1] (K. pneumoniae ATCC 13833) was 16 µg/mL; in the assay on Escherichia coli CCUG^T (E. coli CCUG^T), 64 µg/mL; in assay [2] (A. baumannii ATCC 17978) it was 32 µg/mL. The MIC (in assay [1]; with Escherichia coli CCUG^T; in assay [2]) was over 512 µg/mL each time.

In the case of `CCCCn1c(=O)c(C(=O)NC2CCCc3ccccc32)c(O)c2nn(C)cc21` (stereo not drawn) [It, 4-(1-Butyl)-4,5-dihydro-7-hydroxy-2-methyl-5-oxo-N-(1,2,3,4-tetrahydro-1-naphthyl)-2H-pyrazolo[4,3-b]pyridin-6-carboxamide], the results for the Potentiation fold (in assay [1] (K. pneumoniae ATCC 13833); with Escherichia coli CCUG^T (E. coli CCUG^T); in assay [2] (A. baumannii ATCC 17978)) were at least 32, at least 16 and at least 32, respectively. Besides, the results for the “MIC in presence of colistin” value (in assay [1] (K. pneumoniae ATCC 13833); in the assay with Escherichia coli CCUG^T (E. coli CCUG^T); in assay [2] (A. baumannii ATCC 17978)) were 16 µg/mL, 32 µg/mL and 16 µg/mL, respectively. The MIC in assay [1] (setting [7]) is over 512 µg/mL; in the assay on Escherichia coli CCUG^T (setting [8]), over 512 µg/mL; in assay [2] (setting [9]) it was over 512 µg/mL; in assay [3] it was 64 µg/mL; in assay [4], 64 µg/mL; in assay [5], 32 µg/mL. Further, the MIC in assay [6] came to 32 µg/mL.

Regarding `CCCCn1c(=O)c(C(=O)NC2CCCCCCC2)c(O)c2nn(C)cc21` [Is, 4-(1-Butyl)-N-cyclooctyl-4,5-dihydro-7-hydroxy-2-methyl-5-oxo-2H-pyrazolo[4,3-b]pyridin-6-carboxamide], the Potentiation fold (in assay [1] (K. pneumoniae ATCC 13833); in the assay with Escherichia coli CCUG^T (E. coli CCUG^T); in assay [2] (A. baumannii ATCC 17978)) was at least 16 in each case. Moreover, the “MIC in presence of colistin” value (in assay [1] (K. pneumoniae ATCC 13833); in the assay with Escherichia coli CCUG^T (E. coli CCUG^T); in assay [2] (A. baumannii ATCC 17978)) was 32 µg/mL each time. The MIC in assay [1] (setting [7]) is over 512 µg/mL; in the assay with Escherichia coli CCUG^T (setting [8]), over 512 µg/mL; in assay [2] (setting [9]), over 512 µg/mL; in assay [3], 512 µg/mL; in assay [4], 32 µg/mL; in assay [5] it was 32 µg/mL. In addition, the MIC in assay [6] worked out at 32 µg/mL.

For `CCCCn1c(=O)c(C(=O)NC(C)(C)C)c(O)c2nn(C)cc21` [Iaf, 4-(1-Butyl)-4,5-dihydro-N-(1,1-dimethylethyl)-7-hydroxy-2-methyl-5-oxo-2H-pyrazolo[4,3-b]pyridin-6-carboxamide], the Potentiation fold in assay [1] (K. pneumoniae ATCC 13833) is reported as at least 16; in the assay on Escherichia coli CCUG^T (E. coli CCUG^T), at least 16; in assay [2] (A. baumannii ATCC 17978), at least 8. Further, the “MIC in presence of colistin” value in assay [1] (K. pneumoniae ATCC 13833) stood at 32 µg/mL; in the assay on Escherichia coli CCUG^T (E. coli CCUG^T), 32 µg/mL; in assay [2] (A. baumannii ATCC 17978), 64 µg/mL. Moreover, the MIC in assay [1] (setting [7]) was over 512 µg/mL; in the assay on Escherichia coli CCUG^T (setting [8]) it was over 512 µg/mL; in assay [2] (setting [9]), over 512 µg/mL; in assay [3], 512 µg/mL; in assay [4] it was 64 µg/mL; in assay [5], 128 µg/mL. Also, in assay [6], the MIC turned out to be 64 µg/mL.

Consider `CCCCn1c(=O)c(C(=O)N[C@@H](Cc2ccccc2)C(=O)OC(C)(C)C)c(O)c2nn(C)cc21` [Iad, 1,1-Dimethylethyl (S)-2-[4-(1-butyl)-4,5-dihydro-7-hydroxy-2-methyl-5-oxo-2H-pyrazolo[4,3-b]pyridin-6-carboxamido]-3-phenylpropanoate], for which the Potentiation fold is reported as at least 16 in assay [1] (K. pneumoniae ATCC 13833), at least 16 with Escherichia coli CCUG^T (E. coli CCUG^T) and at least 4 in assay [2] (A. baumannii ATCC 17978). Further, the “MIC in presence of colistin” value in assay [1] (K. pneumoniae ATCC 13833) stood at 32 µg/mL; in the assay on Escherichia coli CCUG^T (E. coli CCUG^T) it was 32 µg/mL; in assay [2] (A. baumannii ATCC 17978) it was 128 µg/mL. In addition, the MIC was over 512 µg/mL in assay [1] (setting [7]); over 512 µg/mL in the assay on Escherichia coli CCUG^T (setting [8]); over 512 µg/mL in assay [2] (setting [9]); 128 µg/mL in assay [3]; 64 µg/mL in assay [4]; 32 µg/mL in assay [5]. For the same molecule, the MIC in assay [6] was 256 µg/mL.

`CC(C)n1c(=O)c(C(=O)NC2CCCCCCC2)c(O)c2nn(C)cc21` [Iz, N-Cyclooctyl-4,5-dihydro-7-hydroxy-2-methyl-5-oxo-4-(2-propyl)-2H-pyrazolo[4,3-b]pyridin-6-carboxamide]: the figures for the Potentiation fold (in assay [1] (K. pneumoniae ATCC 13833); with Escherichia coli CCUG^T (E. coli CCUG^T); in assay [2] (A. baumannii ATCC 17978)) were at least 32, at least 64 and at least 64, respectively. Further, the “MIC in presence of colistin” value in assay [1] (K. pneumoniae ATCC 13833) was 16 µg/mL; with Escherichia coli CCUG^T (E. coli CCUG^T), 8 µg/mL; in assay [2] (A. baumannii ATCC 17978), 8 µg/mL. In addition, the MIC in assay [1] (setting [7]) was over 512 µg/mL; in the assay with Escherichia coli CCUG^T (setting [8]), over 512 µg/mL; in assay [2] (setting [9]), over 512 µg/mL; in assay [3], 64 µg/mL; in assay [4], 16 µg/mL; in assay [5], 32 µg/mL. For the same molecule, the MIC in assay [6] was 32 µg/mL.
